The values below come from patent US11453679B2, “Methyl 2-methyl-5-oxo-1,4,5,7-tetradhydrofuro[3,4-b]pyridine-3-carboxylate compounds as Cav1.2 activators” (Novartis AG, priority 2020, dated 2022).

For data set [1], the target named is T1, human Cav1.2 (Homo sapiens, UniProt Q13936). As to the kind of experiment: Sophion QPatch whole-cell voltage clamp dose-response assay, Cav1.2-HEK293(AUX) cell line (barium currents). The conditions noted are these: for QPatch Emax: maximal fold change of peak inward current; for EC50: QPatch EC50, 6-point dose response, 20-ms pulses from −80 mV to 0 mV, n = 1 unless marked (* n = 2, # n = 3). Background: The patch-clamp technique gives a direct electrical read-out from membranes.
T1 sequence (Q13936 whole entry): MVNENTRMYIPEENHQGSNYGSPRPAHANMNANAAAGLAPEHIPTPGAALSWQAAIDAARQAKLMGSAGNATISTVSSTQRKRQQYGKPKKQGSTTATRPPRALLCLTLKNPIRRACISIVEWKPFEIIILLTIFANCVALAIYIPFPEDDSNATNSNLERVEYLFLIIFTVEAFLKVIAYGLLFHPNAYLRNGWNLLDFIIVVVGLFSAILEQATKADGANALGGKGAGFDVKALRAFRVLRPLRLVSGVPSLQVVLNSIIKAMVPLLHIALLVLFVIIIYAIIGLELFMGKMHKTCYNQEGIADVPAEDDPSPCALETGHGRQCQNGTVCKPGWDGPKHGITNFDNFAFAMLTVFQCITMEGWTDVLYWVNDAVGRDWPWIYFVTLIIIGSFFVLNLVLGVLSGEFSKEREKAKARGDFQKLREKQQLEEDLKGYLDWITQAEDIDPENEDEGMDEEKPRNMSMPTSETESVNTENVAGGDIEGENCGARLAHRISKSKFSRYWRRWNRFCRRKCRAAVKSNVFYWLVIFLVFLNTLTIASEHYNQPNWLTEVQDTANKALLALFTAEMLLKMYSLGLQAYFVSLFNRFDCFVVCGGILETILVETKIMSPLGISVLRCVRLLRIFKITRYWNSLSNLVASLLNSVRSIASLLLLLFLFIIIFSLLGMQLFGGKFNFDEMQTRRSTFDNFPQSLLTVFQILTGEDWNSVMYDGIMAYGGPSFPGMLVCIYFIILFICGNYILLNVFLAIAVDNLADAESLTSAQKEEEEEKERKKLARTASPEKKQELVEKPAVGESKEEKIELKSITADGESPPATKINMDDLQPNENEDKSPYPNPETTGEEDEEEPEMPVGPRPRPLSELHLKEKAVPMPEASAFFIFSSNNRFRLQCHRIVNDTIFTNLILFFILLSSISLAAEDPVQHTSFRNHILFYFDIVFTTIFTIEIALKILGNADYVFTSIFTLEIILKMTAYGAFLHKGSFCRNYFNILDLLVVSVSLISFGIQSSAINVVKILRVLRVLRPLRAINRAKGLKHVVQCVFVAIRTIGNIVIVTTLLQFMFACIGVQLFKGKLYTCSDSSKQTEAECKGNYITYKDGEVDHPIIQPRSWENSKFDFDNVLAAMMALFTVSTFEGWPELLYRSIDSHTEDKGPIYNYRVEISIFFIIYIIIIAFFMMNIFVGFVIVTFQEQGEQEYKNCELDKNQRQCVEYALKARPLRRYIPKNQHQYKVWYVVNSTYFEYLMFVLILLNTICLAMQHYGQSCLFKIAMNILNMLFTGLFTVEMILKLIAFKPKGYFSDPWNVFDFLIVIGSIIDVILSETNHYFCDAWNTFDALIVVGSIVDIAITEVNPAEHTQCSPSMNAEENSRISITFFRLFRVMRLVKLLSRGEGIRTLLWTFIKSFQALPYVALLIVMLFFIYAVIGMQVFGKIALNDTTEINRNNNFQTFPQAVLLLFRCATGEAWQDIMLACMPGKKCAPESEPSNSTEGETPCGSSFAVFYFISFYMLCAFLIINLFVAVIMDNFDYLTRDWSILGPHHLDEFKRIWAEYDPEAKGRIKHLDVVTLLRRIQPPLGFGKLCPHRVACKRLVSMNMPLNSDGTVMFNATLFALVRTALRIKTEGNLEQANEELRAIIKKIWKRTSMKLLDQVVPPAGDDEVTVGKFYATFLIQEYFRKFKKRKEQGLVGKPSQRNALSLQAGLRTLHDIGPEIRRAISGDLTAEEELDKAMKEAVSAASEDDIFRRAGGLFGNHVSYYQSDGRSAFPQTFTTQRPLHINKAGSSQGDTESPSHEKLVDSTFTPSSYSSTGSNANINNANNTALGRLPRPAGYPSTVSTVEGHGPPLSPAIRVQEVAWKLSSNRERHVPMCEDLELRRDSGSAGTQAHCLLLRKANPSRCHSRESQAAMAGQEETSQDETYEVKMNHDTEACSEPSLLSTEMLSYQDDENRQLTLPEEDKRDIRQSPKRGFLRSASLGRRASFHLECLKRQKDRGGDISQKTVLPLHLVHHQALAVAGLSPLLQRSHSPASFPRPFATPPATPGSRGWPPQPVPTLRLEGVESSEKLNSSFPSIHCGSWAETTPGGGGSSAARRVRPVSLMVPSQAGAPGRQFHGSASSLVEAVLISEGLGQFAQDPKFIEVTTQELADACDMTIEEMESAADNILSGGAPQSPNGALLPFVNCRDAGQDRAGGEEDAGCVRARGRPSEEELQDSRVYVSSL
T1 sequence (Q9NY47 19-1001 partner limits assumed): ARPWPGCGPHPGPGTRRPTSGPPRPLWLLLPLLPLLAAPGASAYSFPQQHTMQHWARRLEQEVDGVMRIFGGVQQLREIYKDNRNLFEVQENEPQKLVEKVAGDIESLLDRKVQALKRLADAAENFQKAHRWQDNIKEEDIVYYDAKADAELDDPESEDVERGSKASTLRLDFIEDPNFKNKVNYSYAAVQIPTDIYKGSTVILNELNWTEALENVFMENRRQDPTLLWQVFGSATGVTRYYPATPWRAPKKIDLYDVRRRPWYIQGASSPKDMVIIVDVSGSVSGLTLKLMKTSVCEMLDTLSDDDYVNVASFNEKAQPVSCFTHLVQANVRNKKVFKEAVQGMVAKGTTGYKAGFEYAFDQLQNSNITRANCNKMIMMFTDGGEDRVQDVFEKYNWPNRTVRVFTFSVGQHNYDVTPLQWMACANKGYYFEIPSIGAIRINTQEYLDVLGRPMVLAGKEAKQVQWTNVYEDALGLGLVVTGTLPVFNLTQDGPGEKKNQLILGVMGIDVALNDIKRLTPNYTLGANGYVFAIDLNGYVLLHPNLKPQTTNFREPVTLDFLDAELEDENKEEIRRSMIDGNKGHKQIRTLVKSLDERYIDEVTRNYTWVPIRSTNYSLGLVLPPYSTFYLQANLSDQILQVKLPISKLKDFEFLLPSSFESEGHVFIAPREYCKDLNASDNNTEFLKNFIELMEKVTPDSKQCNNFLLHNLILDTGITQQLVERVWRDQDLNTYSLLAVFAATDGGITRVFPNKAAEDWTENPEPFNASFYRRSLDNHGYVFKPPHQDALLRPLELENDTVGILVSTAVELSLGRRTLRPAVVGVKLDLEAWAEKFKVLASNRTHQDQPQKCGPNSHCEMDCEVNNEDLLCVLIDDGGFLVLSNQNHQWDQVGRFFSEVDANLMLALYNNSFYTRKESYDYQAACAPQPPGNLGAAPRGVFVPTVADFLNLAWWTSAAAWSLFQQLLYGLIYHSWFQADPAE
T1 sequence (Q9NY47 1002-1150 partner limits assumed): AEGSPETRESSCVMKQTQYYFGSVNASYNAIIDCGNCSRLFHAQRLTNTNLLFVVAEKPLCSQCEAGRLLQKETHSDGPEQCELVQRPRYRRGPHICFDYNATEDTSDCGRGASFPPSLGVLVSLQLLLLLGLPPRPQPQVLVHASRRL
T1 sequence (Q08289 whole entry partner): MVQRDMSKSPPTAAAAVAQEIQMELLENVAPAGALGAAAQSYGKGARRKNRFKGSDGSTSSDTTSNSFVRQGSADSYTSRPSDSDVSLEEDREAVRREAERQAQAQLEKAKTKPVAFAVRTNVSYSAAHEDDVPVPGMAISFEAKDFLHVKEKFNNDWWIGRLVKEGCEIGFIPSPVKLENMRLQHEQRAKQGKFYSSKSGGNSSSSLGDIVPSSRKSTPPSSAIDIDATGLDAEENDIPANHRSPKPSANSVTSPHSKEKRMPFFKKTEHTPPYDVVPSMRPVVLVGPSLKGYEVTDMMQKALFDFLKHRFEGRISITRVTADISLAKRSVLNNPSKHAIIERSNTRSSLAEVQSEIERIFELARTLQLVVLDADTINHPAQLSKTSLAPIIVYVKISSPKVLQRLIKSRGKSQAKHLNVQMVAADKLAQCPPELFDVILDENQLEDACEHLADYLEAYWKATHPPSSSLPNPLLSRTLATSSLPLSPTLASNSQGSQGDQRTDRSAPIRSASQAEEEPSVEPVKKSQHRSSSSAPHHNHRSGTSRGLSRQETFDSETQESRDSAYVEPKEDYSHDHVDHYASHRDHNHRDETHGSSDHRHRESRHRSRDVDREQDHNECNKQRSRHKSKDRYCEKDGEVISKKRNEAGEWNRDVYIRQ
Experimental: (§1) 24 hours prior an electrophysiology experiment, doxycycline (1 μg/ml) was added to the growth medium (Table 1), and 25 μM of verapamil was co-applied to prevent calcium influx triggered cell death. Cell confluency should reach 70%-80% right before the experiment.
(§2) To harvest cells (from a T175 cm^2 flask as an example), growth media were removed completely, and the cells were rinsed with 10 mL of D-PBS. D-PBS was aspirated, and 10 mL of Detachin (Genlantis) was added and the plate was placed in a 37° C. incubator for 10 minutes. Detached cells were placed into a 15 mL conical tube and spun at 1000 rpm for 2 minutes. Supernatant was removed, and cells were re-suspended in QPatch complete media (Table 2) to desired cell density of 1.5-3 million cells per QPatch run. Each experimental run uses 1.5 mL of cells.
(§3) The cells suspension was taken to the Sophion QPatch platform that uses whole-cell voltage clamp to measure barium currents conducted through Cav1.2 on single-hole QPlates. […] A dose-response assay protocol was used to determine the maximal fold change of peak inward current (Emax) and potency (EC50) of each compound. The protocol had eight liquid periods. The first liquid period was to stabilize current amplitude, which was monitored using repetitive 200-ms voltage pulses stepping from −80 mV to 0 mV. The second liquid period was to determine baseline current amplitude in the presence of vehicle control, using a single 20-ms voltage pulse stepping from −80 mV to 0 mV. The third through eighth liquid periods were used to ascertain a 6-dose response to compound treatments, also using single 20-ms voltage pulses stepping from −80 mV to 0 mV. The EC50 was generated using the following equation Iconcentration=Ibase+(Ifull−Ibase)*c^n/(XC50^n+c^n), where c is the concentration and n is the Hill coefficient constant. Ifull is the maximal current achievable, and Ibase is 0.

Data set [2] has as its target T1, human Cav1.2. As to the kind of experiment: QPatch channel biophysics assay (current-voltage relationship, V1/2, tau of inactivation), Cav1.2-HEK293(AUX) cell line. It counts as cell-based. Details: expressed in transfected cells; host or cells: Flp-In 293 T-Rex (HEK293), clone 2-19B, stably transfected with pCMV6-entry-CACNA1C and pcDNA5H/FRT-TO-CACNA2D2-FCS-P2A-CACNB2. The conditions noted are these: shift of half-way channel activation voltage (V1/2). As for the experimental part: Clonal isolation was achieved under Neomycin selection.
Each experimental run uses 1.5 mL of cells.
The protocol had eight liquid periods. […] The protocol had four liquid periods.

Data set [3] deals with cFos mRNA. As to the kind of experiment: cFos mRNA induction in cortex of wild-type mice (quantitative PCR). It is filed as in vivo, C57BL/6J male mice. Particulars: one hour after administration. The protocol:
Compound administration and brain tissue collection.
Quantification of cFos mRNA induction. Tissue homogenization was performed using TissueLyser system for 96 well plates (Qiagen). First, frozen cortical samples were thawed, removed from RNAlater, and placed into TissueLyser tubes along with Buffer RLT containing 0.5% Reagent DX and one 5 mm TissueLyser metal bead. The TissueLyser tubes were loaded into a TissueLyser II tissue homogenizer for 3 rounds of homogenization, with each round lasting 5 minutes at 30 Hz bead-beating frequency. Total RNA was purified from the homogenate using RNeasy 96 Plus kit (Qiagen), RNA concentration and A260/A280 ratio were quantified via the Nanodrop (ThermoFisher), and all samples were normalized to 100 ng/μl concentration. RNA was reverse transcribed into cDNA using the Superscript III First-strand synthesis SuperMix Kit (ThermoFisher). For each sample, 6 μl of RNA (600 ng total) was mixed with 1 μL of Oligo dT and 1 μL of annealing buffer and heated to 65° C. for 5 minutes. Next, 10 μL of 2× First-Strand Reaction Mix and 2 μL of the Enzyme mix were added to achieve a total reaction volume of 20 μL. The samples were heated to 50° C. for 50 minutes then 85° C. for 5 minutes to complete cDNA synthesis.
Quantitative PCR was performed on the cDNA samples using Quantitect Multiplex RT-PCR kit (Qiagen) in a 384-well assay format. Each PCR well contained 2 μL of cDNA (60 ng total), 10 μL of RT-PCR mastermix, 1 μL of cFos FAM Taqman probe (Mm00487425_m1 (FAM) #4351368), 1 μL of GAPDH VIC Taqman probe (Mm99999915-g1 (VIC) #4448486), 0.2 μL of Multiplex RT mix and 5.8 μl of RNase-free water. On the ViiA7 Real-Time PCR system (ThermoFisher), the samples were heated to 95° C. for 15 minutes then cycled between 94° C. for 45 seconds and 60° C. for 45 seconds for 45 cycles. cFos Ct values were exported, normalized to GAPDH Ct values, and converted to relative fold change in expression using the delta-delta Ct relative quantification method. cFos fold changes between compound treatments and vehicle were analyzed by one-way ANOVA, followed by Tukey's post-hoc comparisons.

The target of data set [4] is T1, human Cav1.2.
Experimental: as §1, §2, §3
The conditions of data set [5]: mouse, in vivo, ip.
Experimental: (§4) Compound administration and brain tissue collection. Wild-type C57BL/6J male mice were obtained from Jackson laboratories (Bar Harbor, Me.). The acute, single-dose effects of Cav1.2 activators of the present disclosure were evaluated in male eight-week old mice (n=6 mice per compound). Each compound was dissolved in 10% PEG300, 10% Solutol, 10% Cremophore EL, and 70% Phosphate Buffered Saline and administered intraperitoneal (i.p.) at a concentration of 1 mg/kg up to 30 mg/kg depending on the compound. Animals were euthanized one hour after compound administration via exsanguination under deep anesthesia. Blood was collected in EDTA tubes for downstream analysis of drug levels. Brains were rapidly removed from the skull, and the cerebral cortex and cerebellum were regionally dissected. Cerebellar samples were snap frozen in liquid nitrogen to assess compound exposure.
(§5) Quantification of compound exposure. Cerebellar tissue samples were homogenized in 4 mL of 20% acetonitrile and 80% Phosphate buffered saline for every 1 g of tissue (5× dilution). Tissue was homogenized using either of the following three methods: hand held probe system, TissueLyser system with 5 mm steel bead at a frequency of 30 s^−1 for 4 min, or OMNI Bead Ruptor Elite homogenizer for 30 seconds to 1 minute depending on tissue type. Tissue samples were added to a 96-well plate (12.5 μL sample) and processed for quantification by mass spectrometry.
Data set [6] in a line: Compound exposure in wild-type mice (cerebellum and blood, mass spectrometry). The conditions noted are these: male, C57BL/6J, mouse, brain (cerebellum) and whole blood, ip.
Experimental: as §4, §5

Where two headings read alike, the source gives them in different places.

Broadly, the EC50 is the concentration needed to bring the measured effect to its halfway point. Lower therefore signals higher potency in that assay. As to `COC(=O)C1=C(C)NC2=C(C(=O)OC2)[C@H]1c1cccc(F)c1C1CC1(F)F` (single isomer, unassigned) [Example 2, Methyl (S)-4-(2-((S or R)-2.2-difluorocyclopropyl)-3-fluorophenyl)-2-methyl-5-oxo-1,4,5,7-tetrahydrofuro[3,4-b]pyridine-3-carboxylate], the “QPatch Emax” value in data set [1] is 1.6. Also, in data set [2], the Biophysics voltage shift is −1.9 mV. In data set [3], the “% ↑cFOS mRNA cortex (3 mg/kg ip)” value was 23% and the “% ↑cFOS mRNA cortex (10 mg/kg ip)” value was determined as 203%. Moreover, in data set [4], the response was half-maximal at 170 nM (EC50). Further, in data set [5], the “Brain:blood ratio” value is listed as 3.4.

As usually defined, the Kp is tissue or fluid exposure divided by exposure in the circulation. On to `CCc1c(F)cccc1[C@H]1C(C(=O)OC)=C(C)NC2=C1C(=O)OC2` (single isomer, unassigned) [Example 13], for which, in data set [1], it took 220 nM to reach a half-maximal effect (EC50) and the “QPatch Emax” value is given as 1.5. The Biophysics voltage shift in data set [2] is −4.8 mV. Besides, in data set [3], the “% ↑cFOS mRNA cortex (3 mg/kg ip)” value turned out to be 165% and the “% ↑cFOS mRNA cortex (10 mg/kg ip)” value is 281%. For the same compound, in data set [6], the Kp at 1 h came to 1.

Turning to `COC(=O)C1=C(C)NC2=C(C(=O)OC2)[C@H]1c1cc(F)cc(F)c1C1CC1` (single isomer, unassigned) [Example 14], in data set [1], the EC50 worked out at 65 nM and the “QPatch Emax” value is given as 1.8. Also, the Biophysics voltage shift in data set [2] is −1.9 mV. Besides, in data set [3], the “% ↑cFOS mRNA cortex (3 mg/kg ip)” value is 228% and the “% ↑cFOS mRNA cortex (10 mg/kg ip)” value was found to be 364%. Besides, the Kp at 1 h in data set [6] is 1.7.

As for `COC(=O)C1=C(C)NC2=C(C(=O)OC2)[C@H]1c1cccc(F)c1C(C)C` (single isomer, unassigned) [Example 15], in data set [1], a half-maximal effect (EC50) was put at 50 nM and the “QPatch Emax” value was 2. Moreover, the Biophysics voltage shift in data set [2] is recorded as −6.6 mV. Moreover, the “% ↑cFOS mRNA cortex (3 mg/kg ip)” value in data set [3] amounted to 169%. This compound returned a Kp at 1 h in data set [6] of 1.3.

As to `C=C(c1c(F)cc(F)cc1[C@H]1C(C(=O)OC)=C(C)NC2=C1C(=O)OC2)C(F)(F)F` (single isomer, unassigned) [Example 19], in data set [1], the EC50 was 12 nM and the “QPatch Emax” value is recorded as 1.7. Further, the Biophysics voltage shift in data set [2] is reported as −1.8 mV. For the same compound, the “% ↑cFOS mRNA cortex (3 mg/kg ip)” value in data set [3] was determined as 138%. For the same compound, in data set [6], the Kp at 1 h is 2.9.

On to `C=C(c1c(F)cccc1[C@H]1C(C(=O)OC)=C(C)NC2=C1C(=O)OC2)C(F)(F)F` [Example 16, (S)-methyl 4-(3-fluoro-2-(3,3,3-trifluoroprop-1-en-2-yl)phenyl)-2-methyl-5-oxo-1,4,5,7-tetrahydrofuro[3,4-b]pyridine-3-carboxylate], for which, in data set [1], the response was half-maximal at 4 nM (EC50) and the “QPatch Emax” value was 1.5. Besides, the Biophysics voltage shift in data set [2] is −3.3 mV. Moreover, the “% ↑cFOS mRNA cortex (3 mg/kg ip)” value in data set [3] turned out to be 121%. For the same compound, the Kp at 1 h in data set [6] came out at 0.6.
